In ChEMBL document CHEMBL5038629, “Light-Triggered Fluorescence Self-Reporting Nitric Oxide Release from Coumarin Analogues for Accelerating Wound Healing and Synergistic Antimicrobial Applications” (J Med Chem, 2022):

Experiments:
[1] = tested on: Staphylococcus aureus; experiment: Inhibition of biofilm formation in methicillin-resistant Staphylococcus aureus assessed as decrease in biofilm mass at 10 uM upon exposure to UV light irradiation and measured after 48 hrs by dilution plate coating method; type: functional; details: light or radiation study
[2] = tested on: Staphylococcus aureus; experiment: Inhibition of biofilm formation in methicillin-resistant Staphylococcus aureus assessed as biofilm dispersal effect at 10 uM incubated for 5 hrs followed by exposure to UV light irradiation for 1 min by crystal violet staining based analysis; type: functional; parameters: scale not given: the % may be the effect or the level left; details: time 301 min, 5.017 h

## C[C@H]1COc2c(N3CCN(C)CC3)c(F)cc3c(=O)c(C(=O)O)cn1c23.C[C@H]1COc2c(N3CCN(C)CC3)c(F)cc3c(=O)c(C(=O)O)cn1c23.O [LEVOFLOXACIN]
[1]
  inhibition at 10 µM: 19%
[2]
  Activity: 15%
